Experimental data taken from PubChem BioAssay AID330 (DTP/NCI, 2004).
“And” between values parts separate entries of the source, which are not always exact repeats. Equal values may be shown once. Inconclusive results and toxic doses are left out. How the source made its calls: active means survival T/C of 150% or more; inactive means T/C below 125% in these data.

Tested on: P388 leukemia ip, CD2F1 mice, survival T/C
Experiment: NCI In Vivo Anticancer Drug Screen. Data for tumor model P388 Leukemia (intraperitoneal) in CD2F1 (CDF1) mice
Conditions: endpoint: median survival time, higher = longer survival
Outline: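 Mice carrying the transplanted tumor received test compound or vehicle. Survival was recorded in each group, and the value is the treated-group measurement divided by that of the vehicle-treated control group.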

[1] = dose: 100.0 mg/kg/injection, schedule: Q04DX002 (ip), vehicle: saline with Tween-80

Measured: T/C

c1ccc2c(NCCCCCCCCCCCCNc3c4ccccc4nc4ccccc34)c3ccccc3nc2c1
inactive: dose: 1.25 mg/kg/injection, schedule: Q## X009 (ip), vehicle: lactic acid 100 % of control and 96 % of control | dose: 2.5 mg/kg/injection, schedule: Q## X009 (ip), vehicle: lactic acid 99 % of control and 92 % of control | dose: 5.0 mg/kg/injection, schedule: Q## X009 (ip), vehicle: lactic acid 107 % of control and 110 % of control

[Cl][Cu][Cl].[O-][n+]1c2ccccc2nc2ccccc21
inactive: dose: 12.5 mg/kg/injection, schedule: Q04DX003 (ip), vehicle: saline with Tween-80 92 % of control | dose: 25.0 mg/kg/injection, schedule: Q04DX003 (ip), vehicle: saline with Tween-80 103 % of control

C/C(=C\C(=O)O)CC(=O)O
inactive: dose: 100.0 mg/kg/injection, schedule: Q04DX003 (ip), vehicle: saline with Tween-80 92 % of control | dose: 200.0 mg/kg/injection, schedule: Q04DX003 (ip), vehicle: saline with Tween-80 97 % of control | dose: 400.0 mg/kg/injection, schedule: Q04DX003 (ip), vehicle: saline with Tween-80 88 % of control

C=C(CN(C)C)C(=O)c1ccccc1Cl
inactive: dose: 1.8 mg/kg/injection, schedule: Q01DX005 (ip), vehicle: saline 109 % of control | dose: 3.75 mg/kg/injection, schedule: Q01DX005 (ip), vehicle: saline 106 % of control | dose: 7.5 mg/kg/injection, schedule: Q01DX005 (ip), vehicle: saline 105 % of control and 107 % of control

COc1ccc(-c2c(C(N)=O)cnc(C)c2C)c(OCc2ccccc2)c1OC
inactive: dose: 0.05 mg/kg/injection, schedule: Q01DX009 (ip), vehicle: water 104 % of control | dose: 0.1 mg/kg/injection, schedule: Q01DX009 (ip), vehicle: water 117 % of control | dose: 0.2 mg/kg/injection, schedule: Q01DX009 (ip), vehicle: water 104 % of control | dose: 0.4 mg/kg/injection, schedule: Q01DX009 (ip), vehicle: water 103 % of control and 117 % of control | dose: 0.8 mg/kg/injection, schedule: Q01DX009 (ip), vehicle: water 106 % of control | dose: 1.6 mg/kg/injection, schedule: Q01DX009 (ip), vehicle: water 106 % of control | dose: 3.2 mg/kg/injection, schedule: Q01DX009 (ip), vehicle: water 109 % of control | dose: 6.25 mg/kg/injection, schedule: Q01DX009 (ip), vehicle: other 98 % of control | dose: 6.4 mg/kg/injection, schedule: Q01DX009 (ip), vehicle: water 109 % of control | dose: 12.5 mg/kg/injection, schedule: Q01DX009 (ip), vehicle: other 101 % of control | dose: 25.0 mg/kg/injection, schedule: Q01DX009 (ip), vehicle: other 103 % of control | dose: 50.0 mg/kg/injection, schedule: Q01DX009 (ip), vehicle: other 105 % of control | dose: 100.0 mg/kg/injection, schedule: Q01DX009 (ip), vehicle: other 105 % of control | dose: 200.0 mg/kg/injection, schedule: Q01DX009 (ip), vehicle: other 104 % of control | dose: 400.0 mg/kg/injection, schedule: Q01DX009 (ip), vehicle: other 107 % of control

COC1=CC(=O)C(C(C)=O)=C(C#N)C1=O
inactive: [1] 100 % of control | dose: 200.0 mg/kg/injection, schedule: Q04DX002 (ip), vehicle: saline with Tween-80 100 % of control | dose: 400.0 mg/kg/injection, schedule: Q04DX002 (ip), vehicle: saline with Tween-80 90 % of control

CCOC(=O)C(Cc1ccc(N(CCCl)CCCl)cc1)NC(=O)C(C)NC(C)=O (stereo unspecified)
inactive: dose: 5.0 mg/kg/injection, schedule: Q04DX003 (ip), vehicle: water 108 % of control | dose: 10.0 mg/kg/injection, schedule: Q04DX003 (ip), vehicle: water 111 % of control and 113 % of control | dose: 40.0 mg/kg/injection, schedule: Q04DX003 (ip), vehicle: water 122 % of control

COc1ccc(CNC(=O)C#CCOC2CCCCO2)cc1 (stereo unspecified)
inactive: dose: 12.5 mg/kg/injection, schedule: Q01DX005 (ip), vehicle: saline with Tween-80 91 % of control | dose: 25.0 mg/kg/injection, schedule: Q01DX005 (ip), vehicle: saline with Tween-80 90 % of control | dose: 50.0 mg/kg/injection, schedule: Q01DX005 (ip), vehicle: saline with Tween-80 86 % of control | dose: 200.0 mg/kg/injection, schedule: Q01DX005 (ip), vehicle: saline with Tween-80 86 % of control

CC(=O)N=c1ccc2nc3c(cc(N)c4ccccc43)oc-2c1
inactive: dose: 10.0 mg/kg/injection, schedule: Q01DX005 (ip), vehicle: Klucel (hydroxypropylcellulose) (HPC) 98 % of control | dose: 20.0 mg/kg/injection, schedule: Q01DX005 (ip), vehicle: Klucel (hydroxypropylcellulose) (HPC) 100 % of control | dose: 40.0 mg/kg/injection, schedule: Q01DX005 (ip), vehicle: Klucel (hydroxypropylcellulose) (HPC) 98 % of control

C=C1C(=O)O[C@@H]2C[C@@H](C)[C@@H]3CC(=O)OC[C@@]3(C)C[C@H]12
inactive: dose: 50.0 mg/kg/injection, schedule: Q01DX001 (ip), vehicle: saline with Tween-80 100 % of control | dose: 100.0 mg/kg/injection, schedule: Q01DX001 (ip), vehicle: saline with Tween-80 117 % of control | dose: 200.0 mg/kg/injection, schedule: Q01DX001 (ip), vehicle: saline with Tween-80 118 % of control

N#Cc1ccc2c(ccc3ncccc32)n1
inactive: dose: 25.0 mg/kg/injection, schedule: Q04DX002 (ip), vehicle: saline with Tween-80 100 % of control | dose: 50.0 mg/kg/injection, schedule: Q04DX002 (ip), vehicle: saline with Tween-80 100 % of control | [1] 101 % of control

CC(=O)N(O)C(C)=O
inactive: dose: 50.0 mg/kg/injection, schedule: Q01DX005 (ip), vehicle: saline 100 % of control | dose: 100.0 mg/kg/injection, schedule: Q01DX005 (ip), vehicle: saline 104 % of control | dose: 200.0 mg/kg/injection, schedule: Q01DX005 (ip), vehicle: saline 107 % of control

CO/C=C1\CC(=O)N(c2ccccc2)C1=O
inactive: dose: 100.0 mg/kg/injection, schedule: Q04DX003 (ip), vehicle: saline 106 % of control | dose: 200.0 mg/kg/injection, schedule: Q04DX003 (ip), vehicle: saline 100 % of control | dose: 400.0 mg/kg/injection, schedule: Q04DX003 (ip), vehicle: saline 97 % of control

CCOc1ccc(-c2nc(-c3ccc(N(C)C(=O)C(Cl)Cl)cc3)cs2)cc1OCC
inactive: dose: 100.0 mg/kg/injection, schedule: Q04DX003 (ip), vehicle: Klucel (hydroxypropylcellulose) (HPC) 102 % of control | dose: 200.0 mg/kg/injection, schedule: Q04DX003 (ip), vehicle: Klucel (hydroxypropylcellulose) (HPC) 100 % of control | dose: 400.0 mg/kg/injection, schedule: Q04DX003 (ip), vehicle: Klucel (hydroxypropylcellulose) (HPC) 94 % of control

CSC(=S)N/N=C/c1ccccn1
inactive: dose: 12.5 mg/kg/injection, schedule: Q01DX009 (ip), vehicle: saline with Tween-80 100 % of control | dose: 25.0 mg/kg/injection, schedule: Q01DX009 (ip), vehicle: saline with Tween-80 104 % of control and 109 % of control | dose: 50.0 mg/kg/injection, schedule: Q01DX009 (ip), vehicle: saline with Tween-80 113 % of control

Clc1ccc(-c2nc(-c3cc4cc(Cl)ccc4o3)cs2)cc1
inactive: dose: 50.0 mg/kg/injection, schedule: Q01DX009 (ip), vehicle: Klucel (hydroxypropylcellulose) (HPC) 100 % of control | dose: 100.0 mg/kg/injection, schedule: Q01DX009 (ip), vehicle: Klucel (hydroxypropylcellulose) (HPC) 100 % of control | dose: 200.0 mg/kg/injection, schedule: Q01DX009 (ip), vehicle: Klucel (hydroxypropylcellulose) (HPC) 104 % of control

COc1ccc(OC(C)C(=O)O)cc1 (stereo unspecified)
inactive: dose: 50.0 mg/kg/injection, schedule: Q01DX005 (ip), vehicle: Klucel (hydroxypropylcellulose) (HPC) 101 % of control | dose: 100.0 mg/kg/injection, schedule: Q01DX005 (ip), vehicle: Klucel (hydroxypropylcellulose) (HPC) 98 % of control | dose: 200.0 mg/kg/injection, schedule: Q01DX005 (ip), vehicle: Klucel (hydroxypropylcellulose) (HPC) 95 % of control

Nc1nc(N)c2cc(S(=O)(=O)c3nc(-c4ccccc4)cs3)ccc2n1
inactive: dose: 60.0 mg/kg/injection, schedule: Q01DX005 (ip), vehicle: Klucel (hydroxypropylcellulose) (HPC) 98 % of control | dose: 120.0 mg/kg/injection, schedule: Q01DX005 (ip), vehicle: Klucel (hydroxypropylcellulose) (HPC) 98 % of control | dose: 240.0 mg/kg/injection, schedule: Q01DX005 (ip), vehicle: Klucel (hydroxypropylcellulose) (HPC) 105 % of control
